Several values for one entry are separate records, joined by “and”; a condition that tells them apart may be missing. Equal values may be shown once.
Assays:
[1] = Human studies: safety, tolerability and pharmacokinetics after oral dosing; settings: for median Tmax: oral
CYP2C8 = target: T1, CYP2C8 (Homo sapiens, UniProt P10632); test: P450 inhibition in liver microsomes with probe substrates; assay type: in vitro ADME
T1 construct: from tissue; host or cells: liver microsomes
T1 sequence (P10632 1-490): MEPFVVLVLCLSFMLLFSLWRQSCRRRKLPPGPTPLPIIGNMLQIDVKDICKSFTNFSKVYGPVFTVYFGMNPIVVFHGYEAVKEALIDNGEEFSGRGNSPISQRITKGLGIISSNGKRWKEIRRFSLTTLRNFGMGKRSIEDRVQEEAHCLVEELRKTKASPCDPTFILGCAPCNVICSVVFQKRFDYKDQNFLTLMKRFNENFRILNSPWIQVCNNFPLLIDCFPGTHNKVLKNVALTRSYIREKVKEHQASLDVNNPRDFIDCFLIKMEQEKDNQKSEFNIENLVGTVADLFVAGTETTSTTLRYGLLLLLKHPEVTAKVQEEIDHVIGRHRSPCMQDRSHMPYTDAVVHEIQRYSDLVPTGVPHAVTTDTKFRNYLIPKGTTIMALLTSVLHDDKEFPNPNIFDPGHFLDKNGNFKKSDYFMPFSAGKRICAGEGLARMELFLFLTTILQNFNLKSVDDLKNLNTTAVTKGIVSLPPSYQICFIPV

[2] = target: T2, recombinant human ACC1 (rhACC1) (Homo sapiens, UniProt Q13085, DEL44-44); test: Transcreener ADP detection FP assay, recombinant human ACC1 inhibition; assay type: biochemical; settings: recombinant human ACC1, 50 μM ATP; read-out: Transcreener Assay hACC1 IC50
T2 construct: His6 (N); made in house; host or cells: SF9 insect cells (baculovirus)

sebum production = test: Effect on sebum levels in healthy human volunteers (Sebumeter, Sebutape lipid classes); assay type: in vivo; settings: 200 mg BID oral, 14 days
Procedure: Otherwise healthy overweight or obese subjects were admitted to the Clinical Research Institute and dosed orally with Example 1 (200 mg BID) or placebo for 14 consecutive days. On two days pre-treatment and days 13 and 14 (post-treatment) of the study, sebum production was assessed by Sebumeter® measurements and sebum was collected for lipid component identification and quantification. In order to prepare the area of the skin where the Sebumeter® measurements and the sebum collection will be performed, the skin surface has to be cleansed from any lipids and debris. The targeted area on the forehead and the cheeks were gently blotted using an oil-absorbing tissue or gauze. After blotting, wipes or gauze pads presoaked in 70% ethanol solution were used to wipe the forehead and cheeks. Following cleansing, the skin was allowed to dry and sebum measurements were made using a clean, calibrated Sebumeter® SM 815 (Courage+Khazaka, Köln, Germany) in accordance with the manufactures directions at 5 minutes and 3 hours post-cleansing. Sebum levels determined by Sebumeter® are expressed as relative change from pre-treatment baseline for subjects treated with placebo and Example 1 and are presented in FIG. 4. The Sebutape® technique was used for sebum collection. At approximately 9 AM, following facial cleansing and the 5 minute post-cleanse sebumeter measurement, 4 Sebutape® strips were applied: 2 patches placed right and left on the forehead cranial of the middle line of the eye and 2 patches on the cheeks caudal of the middle line of the eye. The Sebutape® was peeled from its backing paper using defatted forceps and affixed to the surface with gentle pressure to assure adequate adhesion. Surgical gloves were to be worn by the person handling the tape. After 1 hour, the 4 patches were removed; the 2 left patches and the 2 right patches were placed in acid-washed, Teflon-capped screw-cap vials. Sebum lipid species were quantified from the Sebutape® samples by Metabolon using their TrueMass® technology platform. Analysis of these sebum samples enabled assessment of the effect of Example 1 vs. placebo on individual sebum lipid classes. […] Individual subject level and box plots depicting means with confidence intervals are shown for sebum triglycerides, wax esters, and free fatty acids (FIG. 5).

ear skin malonyl-CoA = test: Ear skin malonyl-CoA levels in Syrian hamsters; assay type: in vivo, Syrian hamster; settings: topical 100 mg/ml (5 ul/ear), single dose, one hour after treatment
Procedure: Male Syrian gold Hamster at ˜10 weeks were maintained adlibitum on standard hamster chow and water. Example 3 for topical delivery was prepared as a solution in a vehicle consisting of 70:30 (Ethanol:propylene glycol) at a concentration of 100 mg/ml. Topical administration of a single dose (5 ul/ear) was applied to hamster ears with a pipette (2-10 ul) tip adhering to 2 minute intervals following the dosing order. The dosing timing allowed for the formulation to spread evenly over an approximate 1 sq cm area and absorb/dry prior to returning the animal to the cage. […] One hour after dose administration animals were sacrificed by CO2 asphyxiation.
Briefly, ear skin samples were prepared for malonyl-CoA analysis in the following manner. One 8 mm distal biopsy punch (using a 8 mm diameter Sklar Tru-punch—Sklar Instruments) (2 per animal) was taken just above the anatomical “V” in the aural cartilage to normalize sample area. The punch was then split into 2 layers (anterior and posterior). […]
Frozen tissues were homogenized in 1 mL of 5% ice cold trichloroacetic acid using a polytron in a 2 mL polypropylene centrifuge tube. […] Tissue malonyl-CoA levels were determined by LCMS by the Metabolomics Laboratory Sanford-Burnham Medical Research Institute (Orlando, […]). Hamster ear skin malonyl-CoA levels were expressed as the percent of the vehicle control and are plotted in FIG. 6.

| Compound | median Tmax ([1]; fasted state) [h] | median Tmax ([1]; fed state) [h] | maximum tolerated dose ([1]; single doses up to 800 mg, repeated doses up to 400 mg/day) | IC50 (CYP2C8) [nM] | IC50 [2] [nM] | sebum free cholesterol change relative to PBO (sebum production) | sebum squalene levels, increase relative to PBO (sebum production) [fold] | reduction of sebum production by Sebumeter from baseline (sebum production; PBO adjusted) | reduction of sebum free fatty acids relative to placebo (sebum production; Sebutape) | reduction of sebum wax esters relative to placebo (sebum production; Sebutape) [%] | decrease of sebum triglycerides (sebum production; Sebutape, PBO adjusted) [%] | levels of sebum free fatty acids (in words) (sebum production; vs. placebo) | levels of sebum wax esters (in words) (sebum production; vs. placebo) | suppression of hamster ear skin malonyl-CoA relative to vehicle (ear skin malonyl-CoA) [%] |
| --- | --- | --- | --- | --- | --- | --- | --- | --- | --- | --- | --- | --- | --- | --- |
| Cc1nc2ccc(C(=O)N3CCC4(CC3)CC(=O)c3c(cnn3C(C)C)C4)cc2[nH]1 [Example 1, 1-isopropyl-1′-(2-methyl-1H-benzo[d]imidazole-5-carbonyl)-4,6-dihydrospiro[indazole-5,4′-piperidin]-7(1H)-one] | 1 to 2 | 3 to 4 | not established | > 30000 | 98 | no change | 2.6 | 49% and > 49% | approximately 49% | ~53 | 66 | reduced | reduced |  |
| CC(C)n1ncc2c1C(=O)CC1(CCN(C(=O)c3ccc4ccc(N)nc4c3)CC1)C2 [Example 3, 1′-(2-aminoquinoline-7-carbonyl)-1-isopropyl-4,6-dihydrospiro[indazole-5,4′-piperidin]-7(1H)-one] |  |  |  |  |  |  |  |  |  |  |  |  |  | 87 |

— patent publication US20160220557A1, “USE OF ACETYL-COA CARBOXYLASE INHIBITORS FOR TREATING ACNE VULGARIS” (PFIZER INC., priority 2013, published 2016)
